Assay results taken from US7414068B2, “Benzopyran derivatives substituted with secondary amines including tetrazole, method for the preparation thereof and pharmaceutical compositions containing them” (Dongbu Hannong Chemical Co., Ltd., priority 2002, dated 2008).

Legend:
isolated rat aorta = experiment: Vasodilating effect on blood vessel excised from rats (methoxamine-constricted aorta); conditions: isolated rat aorta constricted with methoxamine (3 μM); read-out: Concentration for inhibition of constriction induced by methoxamine in rat arota (IC50)
Text: Rats (350˜450 g, obtained from the Experimental Animal Team of the Korea Research Institute of Chemical Technology) were knocked to be unconscious by hitting the occipital region, sacrificed by cervical dislocation, and underwent thoracotomy. After being quickly removed, the thoracic aorta was deprived of the adipose tissue and cut into aortic rings of 3 mm width. The aorta was lightly rubbed with cotton club soaked in a modified Krebs Henseleit buffer (Physiological salt solution) to remove the inner epithelial layer therefrom. While being hung in an organ bath containing a physiological buffer, the vascular smooth muscle was allowed to equilibrate under a resting tension of 2 g and then, stand for 1 hour at 37° C. for stabilization, supplying a carbogen consisting of 95% O2˜5% CO2.
Thereafter, the vascular smooth muscle was constricted with 10^−5M phenylephrine and washed several times with physiological saline solution. The said procedure was repeated again to ensure the stable reactivity of vascular smooth muscle to repetitive constriction/relaxation.
Thereafter, 3×10^−6 M methoxamine was applied to induce an intensive constriction in the vascular smooth muscle. When the vasoconstriction induced by the methoxamine was reached and maintained to a maximum, test compounds and control material was cumulatively added to the organ bath in concentration of 1, 3, 10 and 30 μM, respectively, to examine the vasodilating effect. Cromakalim, BMS-180448 (the compound of formula 4) and BMS-191095 (the compound of formula 5), known to be the first generation KATP opener with potent vasodilating effect were used as control materials.
The change rate of constriction by the addition of the drugs compared to the maximal constriction induced by methoxamine was calculated to plot a concentration-relaxation response curve. Through a least linear regression analysis, IC50 that the drug concentration at which the vascular tissue is relaxed to 50% extent of the maximal constriction, was obtained for each drug.

cortical neuron cells = experiment: Protective effect on iron-induced neuronal cell injury (LDH release); format: cell-based; conditions: FeSO4 50 μM; for protective effect on neuron cell: Inhibition (%, 30 μM compound addition): LDH reduction vs control; for IC50: LDH
Experimental: From the brains of 17˜18 day-old embryos, cortical neuron cells were isolated and then, cultured at 37° C. for 7˜9 days in a 5% CO2 incubator. The said cortical cell cultures were washed twice with MEM (Minimum essential medium) to reduce the serum level to 0.2%. […] Then, the compound of the said concentration was pre-treated for 30 min, respectively. For the experiment, test compound was dissolved in DMSO and diluted in a medium. At this time, the final concentration of DMSO was not allowed to exceed 0.1%. For control group, only vehicle was applied.
After the said pre-treatment, FeSO4 was added to the medium for a final concentration to be 50 μM. The medium was cultured in CO2 incubator for 24 hours. During the incubation, lactate dehydrogenase (LDH) was released by iron. The serum level of lactate dehydrogenase released into the medium was measured to assess necrosis of neuronal cell by the oxidative toxicity of iron. The protective effect on neuron cells of the test compounds was evaluated by calculating the LDH reduction rate of treatment-group compared with that of the control group.

[1] = Acute oral toxicity test in rats; conditions: SD, rat, in vivo, single oral dose, suspended in 0.5% methyl cellulose, read-out: lethal dose (LD50) for oral administration
Experimental: In this test, six-week old SPF SD rats were used with two rats assigned to each group. Each group was consisted of two rats. The compounds prepared in example 1, 7, 11, 17, 22, 24, 26, 28, 30, 32, 34, 42, 52, 54, 55, 56, 57, 59, 60, 61, 70, 75, 77, 79, 81, 83, 85, and 89 were suspended in 0.5% methyl cellulose, respectively. […] Also, hematological test and biochemical analysis were accomplished. After sacrificing the animals, autopsy was performed for macroscopic observations of the organs and tissues. As a result, there was no significant changes in clinical symptoms, body weight and mortalities. Also in hematology, serum chemistry parameters, macroscopic observation and drug-related changes were not observed.

Work on `CC1(C)Oc2ccc(C#N)cc2[C@H](N(Cc2ncc[nH]2)c2ccc(Cl)cc2)[C@H]1O` [BMS-191095, reference compound] yielded an IC50 (isolated rat aorta) of 2.14 µM.
`CC1(C)Oc2ccc(C#N)cc2C(N2CCCC2=O)C1O` (stereo not drawn) [Cromakalim, reference compound] gave an IC50 (isolated rat aorta) of 0.067 µM.
In the case of `COC(OC)[C@@]1(C)Oc2ccc(N)cc2[C@@H](N(Cc2nnn(C)n2)c2ccc(Cl)cc2)[C@@H]1O` [Example 10, (2S,3S,4R)-6-amino-4-[N-(4-chlorophenyl)-N-(2-methyl-2H-tetrazol-5-ylmethyl)amino]-3-hydroxy-2-methyl-2-dimethoxymethyl-3,4-dihydro-2H-1-benzopyran], the IC50 (isolated rat aorta) is reported as over 30 µM, the “protective effect on neuron cell: Inhibition (%, 30 μM compound addition)” value (cortical neuron cells; 24 hours) is reported as 103% and the IC50 (cortical neuron cells; Cortical neurone, 24 h) is reported as 2.2 µM.
For `COC(OC)[C@@]1(C)Oc2ccc(N)cc2[C@@H](N(Cc2nnn(C)n2)c2ccc(C)cc2)[C@@H]1O` [Example 24], the IC50 (isolated rat aorta) was over 30 µM, the “protective effect on neuron cell: Inhibition (%, 30 μM compound addition)” value (cortical neuron cells; 24 hours) was 98% and the IC50 (cortical neuron cells; 24 hours) was 6.1 µM.
In the case of `COC(OC)[C@@]1(C)Oc2ccc([N+](=O)[O-])cc2[C@H](N(Cc2nnn(C)n2)c2cccc(Cl)c2)[C@H]1O` [Example 25, (2S,3R,4S)-6-nitro-4-[N-(3-chlorophenyl)-N-(2-methyl-2H-tetrazol-5-ylmethyl)amino]-3-hydroxy-2-methyl-2-dimethoxymethyl-3,4-dihydro-2H-1-benzopyran], the IC50 (isolated rat aorta) is reported as 27.4 µM and the “protective effect on neuron cell: Inhibition (%, 30 μM compound addition)” value (cortical neuron cells; 24 hours) is reported as 83%.
In the case of `COC(OC)[C@@]1(C)Oc2ccc([N+](=O)[O-])cc2[C@H](N(Cc2nnn(C)n2)c2ccc(C(F)(F)F)cc2)[C@H]1O` [Example 33, (2S,3R,4S)-6-nitro-4-[N-(4-trifluoromethylphenyl)-N-(2-methyl-2H-tetrazol-5-ylmethyl)amino]-3-hydroxy-2-methyl-2-dimethoxymethyl-3,4-dihydro-2H-1-benzopyran], the “protective effect on neuron cell: Inhibition (%, 30 μM compound addition)” value (cortical neuron cells; 24 hours) is reported as 91% and the IC50 (cortical neuron cells; Cortical neurone, 24 h) is reported as 6 µM.
With `COC(OC)[C@@]1(C)Oc2ccc(N)cc2[C@H](N(Cc2nnn(C)n2)c2ccccc2)[C@H]1O` [Example 55, (2S,3R,4S)-6-amino-4-[N-(2-methyl-2H-tetrazol-5-ylmethyl)phenylamino]-3-hydroxy-2-methyl-2-dimethoxymethyl-3,4-dihydro-2H-1-benzopyran] the LD50 [1] was over 2000 mg/kg.
With `COC(OC)[C@@]1(C)Oc2ccc(N)cc2[C@H](N(Cc2ccccc2)Cc2nnn(C)n2)[C@H]1O` [Example 57, (2S,3R,4S)-6-amino-4[N-benzyl-N-(2-methyl-2H-tetrazol-5-ylmethyl)amino]-3-hydroxy-2-methyl-2-dimethoxymethyl-3,4-dihydro-2H-1-benzopyran] the LD50 [1] was over 2000 mg/kg, the “protective effect on neuron cell: Inhibition (%, 30 μM compound addition)” value (cortical neuron cells; 24 hours) was 94% and the IC50 (cortical neuron cells; Cortical neurone, 24 h) was 3.1 µM.
In the case of `COC(OC)[C@@]1(C)Oc2ccc(N)cc2[C@H](N(Cc2nnn(C)n2)c2ccc(O)cc2C)[C@H]1O` [Example 65, (2S, 3R,4S)-6-amino-4-[N-(2methyl-4-hydroxyphenyl)-N-(2-methyl-2H-tetrazol-5-ylmethyl)amino]-3-hydroxy-2-methyl-2-dimethoxymethyl-3,4-dihydro-2H-1-benzopyran], the IC50 (isolated rat aorta) is reported as over 30 µM.
In the case of `COC(OC)[C@@]1(C)Oc2ccc(N)cc2[C@H](N(Cc2nnn(C)n2)c2cc(C)ccc2O)[C@H]1O` [Example 71, (2S,3R,4S)-6-amino-4-[N-(2-hydroxy-5-methylphenyl)-N-(2-methyl-2H-tetrazol-5-ylmethyl)amino]-3-hydroxy-2-methyl-2-dimethoxymethyl-3,4-dihydro-2H-1-benzopyran], the “protective effect on neuron cell: Inhibition (%, 30 μM compound addition)” value (cortical neuron cells; 24 hours) is reported as 89%, the IC50 (cortical neuron cells; Cortical neurone, 24 h) is reported as under 1 µM and the IC50 (cortical neuron cells; 24 hours) is reported as 0.9 µM.
In the case of `COC(OC)[C@@]1(C)Oc2ccc([N+](=O)[O-])cc2[C@@H](N(Cc2nnn(C)n2)c2ccc(C(F)(F)F)cc2)[C@@H]1O` [Example 74, (2S,3S,4R)-6-nitro-4-[N-(4-trifluoromethylphenyl)-N-(2-methyl-2H-tetrazol-5-ylmethyl)amino]-3-hydroxy-2-methyl-2-dimethoxymethyl-3,4-dihydro-2H-1-benzopyran], the “protective effect on neuron cell: Inhibition (%, 30 μM compound addition)” value (cortical neuron cells; 24 hours) is reported as 90% and the IC50 (cortical neuron cells; Cortical neurone, 24 h) is reported as 5.3 µM.
For `COC(OC)[C@]1(C)Oc2ccc([N+](=O)[O-])cc2[C@@H](N(Cc2nnn(C)n2)c2ccc(C(F)(F)F)cc2)[C@@H]1O` [Example 76, (2R,3S,4R)-6-nitro-4-[N-(4-trifluoromethylphenyl)-N-(2-methyl-2H-tetrazol-5-ylmethyl)amino]-3-hydroxy-2-methyl-2-dimethoxymethyl-3,4-dihydro-2H-1-benzopyran], the “protective effect on neuron cell: Inhibition (%, 30 μM compound addition)” value (cortical neuron cells; 24 hours) was 52% and the IC50 (cortical neuron cells; Cortical neurone, 24 h) was 5.7 µM.
In the case of `COC(OC)[C@]1(C)Oc2ccc([N+](=O)[O-])cc2[C@H](N(Cc2nnn(C)n2)c2ccc(C(F)(F)F)cc2)[C@H]1O` [Example 78, (2R,3R,4S)-6-nitro-4-[N-(4-trifluoromethylphenyl)-N-(2-methyl-2H-tetrazol-5-ylmethyl)amino]-3-hydroxy-2-methyl-2-dimethoxymethyl-3,4-dihydro-2H-1-benzopyran], the “protective effect on neuron cell: Inhibition (%, 30 μM compound addition)” value (cortical neuron cells; 24 hours) is reported as 69% and the IC50 (cortical neuron cells; Cortical neurone, 24 h) is reported as 4.4 µM.
With `COC(OC)[C@]1(C)Oc2ccc(N)cc2[C@H](N(Cc2nnn(C)n2)c2ccc(C(F)(F)F)cc2)[C@H]1O` [Example 79, (2R,3R,4S)-6-amino-4-[N-(4-trifluoromethylphenyl)-N-(2-methyl-2H-tetrazol-5-ylmethyl)amino]-3-hydroxy-2-methyl-2-dimethoxymethyl-3,4-dihydro-2H-1-benzopyran] the LD50 [1] was over 2000 mg/kg, the “protective effect on neuron cell: Inhibition (%, 30 μM compound addition)” value (cortical neuron cells; 24 hours) was 107% and the IC50 (cortical neuron cells; Cortical neurone, 24 h) was under 2 µM. The IC50 (cortical neuron cells; 24 hours) was 1.7 µM.
With `COC(OC)[C@@]1(C)Oc2ccc([N+](=O)[O-])cc2[C@@H](N(Cc2nnn(C)n2)c2ccc(OC(F)(F)F)cc2)[C@@H]1O` [Example 80, (2S,3S,4R)-6-nitro-4-[N-(4-trifluoromethoxyphenyl)-N-(2-methyl-2H-tetrazol-5-ylmethyl)amino]-3-hydroxy-2-methyl-2-dimethoxymethyl-3,4-dihydro-2H-1-benzopyran] the “protective effect on neuron cell: Inhibition (%, 30 μM compound addition)” value (cortical neuron cells; 24 hours) was 95% and the IC50 (cortical neuron cells; Cortical neurone, 24 h) was 5 µM.
For `COC(OC)[C@]1(C)Oc2ccc([N+](=O)[O-])cc2[C@H](N(Cc2nnn(C)n2)c2ccc(OC(F)(F)F)cc2)[C@H]1O` [Example 82, (2R,3R,4S)-6-nitro-4-[N-(4-trifluoromethoxyphenyl)-N-(2-methyl-2H-tetrazol-5-ylmethyl)amino]-3-hydroxy-2-methyl-2-dimethoxymethyl-3,4-dihydro-2H-1-benzopyran], the “protective effect on neuron cell: Inhibition (%, 30 μM compound addition)” value (cortical neuron cells; 24 hours) was 69%, the IC50 (cortical neuron cells; Cortical neurone, 24 h) was under 2 µM and the IC50 (cortical neuron cells; 24 hours) was 1.3 µM.
For `COC(OC)[C@]1(C)Oc2ccc([N+](=O)[O-])cc2[C@@H](N(Cc2nnn(C)n2)c2ccc(OC(F)(F)F)cc2)[C@@H]1O` [Example 84, (2R,3S,4R)-6-nitro-4-[N-(4-trifluoromethoxyphenyl)-N-(2-methyl-2H-tetrazol-5-ylmethyl)amino]-3-hydroxy-2-methyl-2-dimethoxymethyl-3,4-dihydro-2H-1-benzopyran], the “protective effect on neuron cell: Inhibition (%, 30 μM compound addition)” value (cortical neuron cells; 24 hours) was 48% and the IC50 (cortical neuron cells; Cortical neurone, 24 h) was 5.6 µM.
For `COC[C@]1(C)Oc2ccc([N+](=O)[O-])cc2[C@@H](N(Cc2nnn(C)n2)c2ccc(F)cc2)[C@@H]1O` [Example 99, (2S,3S,4R)-6-nitro-4-[N-(4-fluorophenyl)-N-(2-methyl-2H-tetrazol-5-ylmethyl)amino]-3-hydroxy-2-methyl-2-methoxymethyl-3,4-dihydro-2H-1-benzopyran], the “protective effect on neuron cell: Inhibition (%, 30 μM compound addition)” value (cortical neuron cells; 24 hours) was 69% and the IC50 (cortical neuron cells; Cortical neurone, 24 h) was 20.8 µM.
